Values quoted from earlier work, collected in patent US9155796B2, “Hydrogels with covalently linked polypeptides” (SUSAVION BIOSCIENCES, INC., priority 2012, dated 2015).

System: peripheral blood mononuclear cells (PBMCs)
Details: PBMC cultures; within 4 hours

(VQATQS-PEG2-)4-Lys2-Lys-PEG2-Cys[—CH2CH(Me): CH2]—NH2 (not fully specified; tetravalent Lys dendrimer, PEG2 linkers, modified Cys amide; Therapeutic peptide) [SVC1]
increased PDGF secretion: two- to four-fold

(NQHTPR-PEG2-)4-Lys2-Lys-PEG2-Cys[—CH2CH(Me): CH2]—NH2 (not fully specified; tetravalent Lys dendrimer, PEG2 linkers, modified Cys amide; Therapeutic peptide) [SV6D]
increased PDGF secretion: two- to four-fold

(WNSTL-PEG2-)4-Lys2-Lys-PEG2-Cys[CH2CH(Me): CH2]—NH2 (not fully specified; tetravalent Lys dendrimer, PEG2 linkers, modified Cys amide; Therapeutic peptide) [SVH1B]
increased PDGF secretion: two- to four-fold

(VSNQH-PEG2-)4-Lys2-Lys-PEG2-Cys[—CH2CH(Me): CH2]—NH2 (not fully specified; tetravalent Lys dendrimer, PEG2 linkers, modified Cys amide; Therapeutic peptide) [SVD2]
increased PDGF secretion: two- to four-fold
